Reference: US20110097385A1, “Delivery System for Drug and Cell Therapy” (TTDC BIO L.P., priority 2003, published 2011)

Assays:
[1] = tested on: humans; details: in humans, company information (Novo Nordisk); cited from earlier work
[2] = tested on: mice; experiment: Blood glucose in mice after injected insulin with or without crystallized dextran microparticles; format: in vivo; details: mouse
Procedure: The suspension was prepared as follows. 5.0 g of Dextran T10 (Pharmacia, Uppsala, Sweden) was dissolved in 20.0 g of water. The solution was filtered through a 0.22 μm filter (Millipore, Bedford, Mass.) and freeze dried. 3.0 g of the resulting powder was dissolved in 3.0 g of sterile water and placed in box at temperature 60° C. […] Finally, the produced crystallized dextran microparticles suspension was mixed with aqueous insulin solution and used in the experiment with mice. Samples of the suspension were introduced into the mice's legs and samples of animal blood were taken from each mouse's tail and analyzed for glucose concentrations.
In comparative example 15, no insulin was injected into the mouse.

[3] = tested on: mouse; experiment: Blood glucose in mouse after subcutaneous two phase composition or insulin alone; format: in vivo; details: 0.5 UI insulin subcutaneously
Procedure: 0.05 ml of the PEG and insulin solution is mixed with 0.15 ml of the microparticle and dextran suspension to form a two phase composition or mixture. 0.02 ml of the two phase mixture containing 0.5 UI of insulin is injected subcutaneously into mouse.

[4] = tested on: Chinchilla rabbits; experiment: Blood glucose and duration of efficacy in rabbits after subcutaneous insulin formulations; details: rabbit, 8 UI subcutaneously
Procedure: Samples of the formulation were subcutaneously injected into the rabbits. […] Samples of animal blood were taken from the rabbit's ear vein and analyzed for glucose concentration. Blood glucose concentration was measured with a glucose analyzer (One-Touch® Lifescan, Johnson & Johnson, Milpitas, Calif., USA) after proper calibration.
In comparative examples 23 and 24, two intact rabbits were not provided any insulin.

[5] = insulin 0.5 UI injected, listed as 16
[6] = insulin 0.5 UI injected, listed as 21

Substance: Actrapid HM®: short-acting human recombinant insulin of Novo Nordisk, injected alone; Ex 21 is the average of 16 and 17
- advertised duration of efficacy [1]: eight
- change of blood glucose level from 120 minutes to 390 minutes after injection ([2]; insulin 0.5 UI): did substantially increase
- glucose 0 min ([2]; insulin 0.5 UI injected): 8.1 mmol/L
- glucose 0 min [2, 5]: 5.9 mmol/L
- glucose 0 min [2, 6]: 7 mmol/L
- glucose 15 min ([2]; insulin 0.5 UI injected): 3.8 mmol/L
- glucose 15 min [2, 5]: 3.3 mmol/L
- glucose 15 min [2, 6]: 3.6 mmol/L
- glucose 30 min ([2]; insulin 0.5 UI injected): 2.8 mmol/L
- glucose 30 min [2, 5]: 2.7 mmol/L
- glucose 30 min [2, 6]: 2.8 mmol/L
- glucose 45 min ([2]; insulin 0.5 UI injected): 1.9 mmol/L
- glucose 45 min [2, 5]: 1.8 mmol/L
- glucose 45 min [2, 6]: 1.9 mmol/L
- glucose 120 min ([2]; insulin 0.5 UI injected, 120 min): 0.9 mmol/L
- glucose 210 min ([2]; insulin 0.5 UI injected): 3.7 mmol/L
- glucose 210 min [2, 5]: 3.5 mmol/L
- glucose 210 min [2, 6]: 3.6 mmol/L
- glucose 270 min ([2]; insulin 0.5 UI injected): 3.4 mmol/L
- glucose 270 min [2, 5]: 3.0 mmol/L
- glucose 270 min [2, 6]: 3.2 mmol/L
- glucose 390 min ([2]; insulin 0.5 UI injected): 3.5 mmol/L
- glucose 390 min [2, 5]: 3.2 mmol/L
- glucose 390 min [2, 6]: 3.4 mmol/L
- glucose 15 min ([3]; 15 min): 3.7 mmol/L
- glucose 30 min ([3]; 30 min): 2.3 mmol/L
- glucose 45 min ([3]; 45 min): 1.7 mmol/L
- glucose 60 min ([3]; 60 min): 2.9 mmol/L
- glucose 120 min ([3]; 120 min): 6.7 mmol/L

Substance: Monotard HM®: long-acting insulin of Novo Nordisk (40 UI/ml), injected subcutaneously alone at 8 UI
- advertised duration of efficacy [1]: twenty four
- glucose 0 hours ([4]; 0 hours): 5.4 mmol/L
- glucose 0.5 hours ([4]; listed as 25): 5.8 mmol/L
- glucose 0.5 hours ([4]; listed as 26): 5.0 mmol/L
- glucose 1 hour ([4]; listed as 25): 3.8 mmol/L
- glucose 1 hour ([4]; listed as 26): 4.2 mmol/L
- glucose 1.5 hours ([4]; listed as 25): 3.2 mmol/L
- glucose 1.5 hours ([4]; listed as 26): 2.9 mmol/L
- glucose 2 hours ([4]; listed as 25): 2.4 mmol/L
- glucose 2 hours ([4]; listed as 26): 2.5 mmol/L
- glucose 16 hours ([4]; listed as 25): 3.9 mmol/L
- glucose 16 hours ([4]; listed as 26): 4.0 mmol/L
- glucose 24 hours ([4]; listed as 25): 5.6 mmol/L
- glucose 24 hours ([4]; listed as 26): 5.1 mmol/L
- glucose […] ([4]; listed as 25): 2.6 mmol/L
- glucose […] ([4]; listed as 26): 2.4 mmol/L
